Measurements: patent US10420770B2, “Compositions and methods for treating dementia” (EIP Pharma, LLC, priority 2016, dated 2019)

Columns and labels:
Assay type in all cases: in vivo, human
[1] = Safety and tolerability, 12-week Phase IIa study (Example 1); details: 40 mg or 125 mg twice daily, 12 weeks
Method: Investigators and patients were blind to the dosage strength. […] Patients were instructed to take doses within 30 minutes following a meal or snack, with each dose taken approximately 12 hours apart at the same times each day throughout the study.
(§1) Sixteen subjects completed the full 12 weeks of treatment and all were included in safety analyses. […] In the PK analysis, due to the sparse sampling collection design, the time period from 0 to 24 hours post-dose was divided into 4 blocks in order to show the distribution of concentrations over time. […] Average blood concentration of about 8 ng/mL at the 40 mg dose level was observed. This is higher than the 5 ng/mL.

[2] = Population pharmacokinetic analyses (Example 1 and Example 2 combined); details: population PK
Method: as §1

interleukin-10 (IL-10) = assay: CSF cytokine measurement (Mesoscale Discovery), IL-10, 6-week study; details: day 41; after VX-745 reached Cmax in the plasma
Method: (§2) Cytokine measurements of CSF samples were done to assess the balance of pro-inflammatory versus anti-inflammatory cytokines. The t-helper type 1/t-helper type 2 (TH1/TH2) multiplex cytokine (IFN-γ, IL-1β, IL-2, IL-4, IL-5, IL-8, IL-10, IL-12p70, IL-13, TNFα ) panel by Mescoscale Discovery were utilized to inform on effects on the relative balance of pro-inflammatory cytokines (e.g. IL-1β, TNFα) versus anti-inflammatory cytokines (e.g., IL-10).
(§3) Target engagement was assessed through the evaluation of the effect of drug treatment on CSF biomarkers. CSF was collected at 6 time-points over 24 hours at baseline (the 24 hours prior to first dose) and again at 6 time-points over 24 hours near the end of treatment on Day 40. The samples were evaluated by the Mesoscale Discovery ELISA platform for multiple cytokines ((IFN-γ, IL-1β, IL-2, IL-4, IL-5, IL-8, IL-12 protein 70, IL-13, TNFα, and CSF) and for amyloid-beta peptides (Aβ 38/40/42).

interleukin-8 (IL-8) = assay: CSF cytokine measurement (Mesoscale Discovery), IL-8, 6-week study; details: high exposure group by plasma AUC(0-8) on Day 1
Method: as §2, §3

[3] = tested on: neurofilament light chain (NFL); assay: CSF neurofilament light chain (NFL), 6-week study; details: baseline to day 40
Method: Phospho-tau and NFL proteins from CSF sampling were evaluated as markers of the effects of inflammation on neurodegeneration and axonopathy, respectively.

synaptic function = assay: Quantitative EEG, 6-week study
Method: Quantitative EEG was conducted as a measure of the effects of inflammatory cytokines on synaptic function and the effects of modulation of p38 MAPK on synaptic plasticity. Brain fluorodeoxyglucose (FDG) PET scan was conducted at the Screening Visit and Day 40 to measure brain metabolism. In addition, CSF drug levels of VX-745 were obtained to confirm delivery of drug to the brain.

O=c1ncn2nc(Sc3ccc(F)cc3F)ccc2c1-c1c(Cl)cccc1Cl [VX-745]
liver transaminase elevations [1]: No liver transaminase elevations | serious adverse events [1]: No serious adverse events | tolerability [1]: well tolerated | median 12-hour exposure ([2]; 40 mg dose level): 78 ng·h/mL | median 12-hour exposure ([2]; 125 mg dose level): 116 ng·h/mL | half-life ([2]; human, plasma, oral, Examples 1 and 2 combined, read-out: terminal half-life (converted)): ~960 min | CSF IL-10 change from baseline (interleukin-10 (IL-10)): decreased rapidly | CSF IL-8, Day 41 vs baseline at matched time points (interleukin-8 (IL-8)): trend towards lower CSF IL-8 | CSF levels of neurofilament light chain (NFL) [3]: no change | EEG (synaptic function): potential positive pharmacodynamics effect
